Test results from patent publication US20240401144A2, “PRIMER-PROBE COMPOSITION, KIT, AND DETECTION METHOD” (ASCENTAWITS PHARMACEUTICALS, LTD., priority 2021, published 2024).

Experiments:
[1] = test system: HEL hematological cancer cell line; experiment: Ex vivo proliferation assay, hematological cancer cell lines, 72 h; format: cell-based; settings: Homo sapiens; Table 6: HEL, 72 h of exposure
Experimental: (§1) Exponentially growing cells were inoculated. After 24 h, the test compound OBI-3424 was added. After addition of the test compound OBI-3424, plates were incubated in a standard tissue incubator at 37° C. for the indicated hours. At the end of the experiment, viable cells were detected using the CellTiter Glo (CTG) assay kit or AlamarBlue. Drug concentrations (IC50) resulting in 50% growth inhibition relative to untreated control were calculated using XLfit (IDBS, Boston, MA) or Prism 6 (GraphPad, San Diego, CA).
(§2) After exposing the hematological cancer cell lines to compound OBI-3424 for 72 h, the IC50 value was determined by ex vivo proliferation assay. The expression data of AKR1C3 RNA in hematological cancer cell lines was from CrownBio database (https://db.crownbio.com/Crownbio/OncoExpress_Login.aspx).

[2] = test system: TALL-1 hematological cancer cell line; experiment: as above; format: cell-based; settings: Homo sapiens; Table 6: TALL-1, 72 h of exposure
Experimental: as §1, §2

[3] = test system: Jurkat hematological cancer cell line; experiment: as above; format: cell-based; settings: Homo sapiens; Table 6: Jurkat, 72 h of exposure
Experimental: as §1, §2

[4] = test system: TF-1 hematological cancer cell line; experiment: as above; format: cell-based; settings: Homo sapiens; Table 6: TF-1, 72 h of exposure
Experimental: as §1, §2

[5] = test system: P31/FUJ hematological cancer cell line; experiment: as above; format: cell-based; settings: Homo sapiens; Table 6: P31/FUJ, 72 h of exposure
Experimental: as §1, §2

[6] = test system: SUP-T1 hematological cancer cell line; experiment: as above; format: cell-based; settings: Homo sapiens; Table 6: SUP-T1, 72 h of exposure
Experimental: as §1, §2

[7] = test system: Kasumi-1 hematological cancer cell line; experiment: as above; format: cell-based; settings: Homo sapiens; Table 6: Kasumi-1, 72 h of exposure
Experimental: as §1, §2

[8] = test system: PF-382 hematological cancer cell line; experiment: as above; format: cell-based; settings: Homo sapiens; Table 6: PF-382, 72 h of exposure
Experimental: as §1, §2

[9] = test system: KG-1 hematological cancer cell line; experiment: as above; format: cell-based; settings: Homo sapiens; Table 6: KG-1, 72 h of exposure
Experimental: as §1, §2

[10] = test system: CCRF-CEM hematological cancer cell line; experiment: as above; format: cell-based; settings: Homo sapiens; Table 6: CCRF-CEM, 72 h of exposure
Experimental: as §1, §2

[11] = test system: THP-1 hematological cancer cell line; experiment: as above; format: cell-based; settings: Homo sapiens; Table 6: THP-1, 72 h of exposure
Experimental: as §1, §2

[12] = test system: SNU-398 hepatocellular carcinoma cell line; experiment: Ex vivo proliferation assay, 96 h exposure; format: cell-based; settings: Homo sapiens; SNU-398, 96 h of exposure; AKR1C3 protein Low; read-out: 3424 IC50
Experimental: as §1
(§3) After exposing the hepatocellular carcinoma cell lines to compound OBI-3424 for 96 h and exposing the NSCLC cell lines to compound OBI-3424 for 72 h, the IC50 value was determined by ex vivo proliferation assay, and the expression of AKR1C3 protein in hepatocellular carcinoma cell lines was determined by Western blotting (tubulin was used as loading control). The expression data of AKR1C3 RNA in the hepatocellular carcinoma cell lines and in the NSCLC cell lines were from CrownBio database (https://db.crownbio.com/Crownbio/OncoExpress_Login.aspx).

[13] = test system: SNU-475 hepatocellular carcinoma cell line; experiment: Ex vivo proliferation assay, 96 h exposure; format: cell-based; settings: Homo sapiens; SNU-475, 96 h of exposure; AKR1C3 protein High; read-out: 3424 IC50
Experimental: as §1, §3

[14] = test system: SNU-449 hepatocellular carcinoma cell line; experiment: Ex vivo proliferation assay, 96 h exposure; format: cell-based; settings: Homo sapiens; SNU-449, 96 h of exposure; AKR1C3 protein High; read-out: 3424 IC50
Experimental: as §1, §3

[15] = test system: HLE hepatocellular carcinoma cell line; experiment: Ex vivo proliferation assay, 96 h exposure; format: cell-based; settings: Homo sapiens, 96 h of exposure, AKR1C3 protein High, read-out: 3424 IC50
Experimental: as §1, §3

[16] = test system: C3A hepatocellular carcinoma cell line; experiment: Ex vivo proliferation assay, 96 h exposure; format: cell-based; settings: Homo sapiens, 96 h of exposure, AKR1C3 protein High, read-out: 3424 IC50
Experimental: as §1, §3

[17] = test system: HLF hepatocellular carcinoma cell line; experiment: Ex vivo proliferation assay, 96 h exposure; format: cell-based; settings: Homo sapiens, 96 h of exposure, AKR1C3 protein Low, read-out: 3424 IC50
Experimental: as §1, §3

[18] = test system: SNU-182 hepatocellular carcinoma cell line; experiment: Ex vivo proliferation assay, 96 h exposure; format: cell-based; settings: Homo sapiens; SNU-182, 96 h of exposure; AKR1C3 protein Low; read-out: 3424 IC50
Experimental: as §1, §3

[19] = test system: SK-HEP-1 hepatocellular carcinoma cell line; experiment: Ex vivo proliferation assay, 96 h exposure; format: cell-based; settings: Homo sapiens, SK-HEP1; SK-HEP-1, 96 h of exposure; AKR1C3 protein Low; read-out: 3424 IC50
Experimental: as §1, §3

[20] = test system: cell lines derived from T-ALL with high AKR1C3 expression; experiment: Ex vivo cytotoxicity in leukemia cell lines (summary); format: cell-based, human
Experimental: (§4) Leukemia cell lines were suspended in RPMI medium supplemented with FBS (Biosera), while ALL PDX cells were cultured in QBSF medium (Quality Biological Inc.,) supplemented with Flt-3 ligand (20 ng/ml, BioNovus Life Sciences) or IL7 (10-20 ng/ml, Jomar Life Research). Cells were inoculated according to the optimal cell density and incubated for 3h or overnight (37° C., 5% CO2). PDX cells and leukemia cell lines were treated with OBI-3424 ([…]) or medium control for 48 or 72 h, respectively. Viability was determined using Alamar Blue reduction assay or Cell Titer-Glo Luminescent Cell Viability Assay (Promega). The half-maximal inhibitory concentration (IC50) was used to calculate the interpolation of nonlinear regression curves by GraphPad Prism 7 software.
In order to evaluate the potential anti-leukemia activity of OBI-3424, ex vivo cytotoxicity assays were performed on a variety of leukemia cell lines. […] The difference in IC50 values between cell lines with high/medium AKR1C3 expression and low expression was statistically significant (P=0.0016).

ALL cell lines = experiment: Ex vivo cytotoxicity in ALL cell lines (summary); format: cell-based; settings: Homo sapiens
Experimental: as §4
The expression levels of AKR1C3 protein was determined by Western blot analysis. The ex vivo cytotoxicity of OBI-3424 was determined using CellTiter-Glo assay and calculated as 50% maximum inhibitory concentration (IC50).

`C[C@H](OP(=O)(N1CC1)N1CC1)c1ccc([N+](=O)[O-])c(Oc2cccc(C(=O)N(C)C)c2)c1` [OBI-3424] was tested. Which IC50 [1] did it give?
The IC50 was 224 nM.

What about the IC50 [2] of the same molecule?
Its IC50 is 24 nM.

What about the IC50 [3] of the same molecule?
The IC50 was 51.1 nM.

And the IC50 [4]?
The IC50 was 16.8 nM.

What about the IC50 [5] of the same molecule?
The IC50 was no less than 1000 nM.

And the IC50 [6]?
The IC50 was 3.9 nM.

And the IC50 [7]?
Its IC50 is no less than 1000 nM.

What about the IC50 [8] of the same molecule?
The IC50 was 6 nM.

What about the IC50 [9] of the same molecule?
The IC50 was 153 nM.

And the IC50 [10]?
The IC50 was 1.7 nM.

And the IC50 [11]?
Its IC50 is no less than 1000 nM.

What about the IC50 [12] of the same molecule?
Its IC50 is greater than 1000 nM.

What about the IC50 [13] of the same molecule?
The IC50 was 15 nM.

What about the IC50 [14] of the same molecule?
Its IC50 is 45 nM.

And the IC50 [15]?
The IC50 was 113 nM.

And the IC50 [16]?
The IC50 was 5 nM.

What about the IC50 [17] of the same molecule?
The IC50 was greater than 1000 nM.

And the IC50 [18]?
Its IC50 is greater than 1000 nM.

What about the IC50 [19] of the same molecule?
Its IC50 is greater than 1000 nM.

What about the IC50 values [20] of the same molecule?
The IC50 values was “low nmol/L range”.

And the IC50 (ALL cell lines; 6 types of cell lines expressing high (strong) levels of AKR1C3)?
The IC50 was 3 to 30 nM.

And the IC50 (ALL cell lines; cell lines with medium AKR1C3 expression levels)?
Its IC50 is 3 to 84 nM.
